Read-outs that look alike come from different tables or passages of the source. Square brackets hold non-standard residues; d marks the D form. Peptide text beside a SMILES is read from it. Cit = NC(=O)NCCC[C@H](N)C(=O)O
Key:
HLA-DRB1*01:01 = biological target: T1, HLA-DRB1*01:01 (Homo sapiens, UniProt P01903+P01911, A100R/D57E/F55L/F60I/F76Y/I96L/L162R/M171V/P40L/Q125E/R42F/V115G/Y59C); test: HLA class II peptide binding, inhibition of radiolabeled peptide binding to purified MHC
T1 construct: EBV transformed homozygous cell lines were used as sources of MHC molecules; endogenous in cells; host or cells: EBV transformed homozygous cell lines

HLA-DRB1*04:01 = biological target: T2, HLA-DRB1*04:01 (Homo sapiens, UniProt P01903+P01911, A100K/A169T/F76Y/I96L/K127E/L162R/M171V/N62H/P40V/Q125Y/R42H/S133A/S149N/S66Y/V115G/V209L/W38E); test: as above; conditions: for DRB1*04:01 binding capacity, WT/cit ratio: ratio of WT IC50 to Cit IC50, >1 = citrullination increases binding
T2 construct: EBV transformed homozygous cell lines were used as sources of MHC molecules; endogenous in cells; host or cells: EBV transformed homozygous cell lines

[1] = citrullinated 15-mer peptide (X = citrulline), purified HLA-DRB1*01:01, read-out: DRB1*01:01 binding capacity, Cit peptide (IC50 nM)
[2] = citrullinated 15-mer peptide (X = citrulline), purified HLA-DRB1*04:01, read-out: DRB1*04:01 binding capacity, Cit peptide (IC50 nM)

SMILES | IC50 (HLA-DRB1*01:01; [1]) | IC50 (HLA-DRB1*04:01; [2]) | further results
CC[C@H](C)[C@H](NC(=O)CNC(=O)[C@H](CCCNC(=N)N)NC(=O)[C@H](CCC(N)=O)NC(=O)CNC(=O)[C@H](C)NC(=O)[C@H](CC(C)C)NC(=O)CNC(=O)[C@H](CCC(N)=O)NC(=O)[C@@H]1CCCN1C(=O)CNC(=O)[C@@H]1CCCN1)C(=O)N[C@H](C(=O)NCC(=O)N[C@@H](CC(C)C)C(=O)O)C(C)C [Collagen 971 WT] | – | – | IC50 (HLA-DRB1*01:01; wild-type (unmodified Arg) 15-mer peptide, purified HLA-DRB1*01:01, read-out: DRB1*01:01 binding capacity, WT peptide (IC50 nM)): 7.9 nM; IC50 (HLA-DRB1*04:01; wild-type (unmodified Arg) 15-mer peptide, purified HLA-DRB1*04:01, read-out: DRB1*04:01 binding capacity, WT peptide (IC50 nM)): 7160 nM
CSCC[C@H](NC(=O)[C@H](CCC(N)=O)NC(=O)[C@H](CCCNC(=N)N)NC(=O)[C@H](CCC(=O)O)NC(=O)[C@H](CC(C)C)NC(=O)[C@H](CO)NC(=O)[C@H](CCC(=O)O)NC(=O)[C@H](CC(N)=O)NC(=O)[C@@H](NC(=O)CNC(=O)[C@H](CCCCN)NC(=O)[C@H](CC(C)C)NC(=O)[C@H](C)NC(=O)[C@@H](N)CC(=O)O)[C@@H](C)O)C(=O)N[C@@H](CCCNC(N)=O)C(=O)O [DALKGTNESLERQMX] (H-DALKGTNESLERQM[Cit]-OH) | 24200 nM | 17500 nM | –
CSCC[C@H](NC(=O)[C@H](CCC(N)=O)NC(=O)[C@H](CCCNC(N)=O)NC(=O)[C@H](CCC(=O)O)NC(=O)[C@H](CC(C)C)NC(=O)[C@H](CO)NC(=O)[C@H](CCC(=O)O)NC(=O)[C@H](CC(N)=O)NC(=O)[C@@H](NC(=O)CNC(=O)[C@H](CCCCN)NC(=O)[C@H](CC(C)C)NC(=O)[C@H](C)NC(=O)[C@@H](N)CC(=O)O)[C@@H](C)O)C(=O)N[C@@H](CCCNC(=N)N)C(=O)O [DALKGTNESLEXQMR] (H-DALKGTNESLE[Cit]QMR-OH) | > 40000 nM | 16600 nM | –
CC[C@H](C)[C@H](NC(=O)[C@H](CO)NC(=O)[C@H](CCC(=O)O)NC(=O)[C@@H](NC(=O)[C@H](CCC(N)=O)NC(=O)[C@H](CC(N)=O)NC(=O)[C@H](CC(N)=O)NC(=O)[C@H](CC(C)C)NC(=O)[C@H](CO)NC(=O)[C@H](CCCCN)NC(=O)[C@H](CC(C)C)NC(=O)[C@@H](NC(=O)[C@H](C)NC(=O)[C@@H](N)CC(=O)O)[C@@H](C)O)[C@@H](C)CC)C(=O)N[C@@H](CCCNC(N)=O)C(=O)O [DATLKSLNNQIESIX] (H-DATLKSLNNQIESI[Cit]-OH) | – | – | IC50 (HLA-DRB1*01:01; citrullinated peptide as listed (X at Cit position), read-out: DRB1*01:01 binding capacity Cit peptide (IC50 nM)): 9.4 nM; IC50 (HLA-DRB1*04:01; citrullinated peptide as listed (X at Cit position), read-out: DRB1*04:01 binding capacity Cit peptide (IC50 nM)): 1390 nM
CC(C)C[C@H](NC(=O)CNC(=O)[C@@H](N)CC(=O)O)C(=O)N[C@@H](C)C(=O)NCC(=O)N1CCC[C@H]1C(=O)N[C@@H](CCCCN)C(=O)NCC(=O)N[C@@H](C)C(=O)N1CCC[C@H]1C(=O)NCC(=O)N[C@@H](CCC(=O)O)C(=O)N[C@@H](CCCNC(N)=O)C(=O)NCC(=O)N1CCC[C@H]1C(=O)O [DGLAGPKGAPGEXGP] (H-DGLAGPKGAPGE[Cit]GP-OH) | 1120 nM | > 40000 nM | –
C[C@H](NC(=O)CNC(=O)[C@H](CCCCN)NC(=O)[C@@H]1CCCN1C(=O)CNC(=O)[C@@H](N)CC(=O)O)C(=O)N[C@@H](CCCNC(=N)N)C(=O)NCC(=O)N[C@@H](CC(=O)O)C(=O)N[C@@H](CO)C(=O)NCC(=O)N1CCC[C@H]1C(=O)N1CCC[C@H]1C(=O)NCC(=O)N[C@@H](CCCNC(N)=O)C(=O)O [DGPKGARGDSGPPGX] (H-DGPKGARGDSGPPG[Cit]-OH; N-terminus and C-terminus assumed) | > 40000 nM | > 40000 nM | DRB1*04:01 binding capacity, WT/cit ratio (HLA-DRB1*04:01): 0.548
C[C@H](NC(=O)CNC(=O)[C@H](CCCCN)NC(=O)[C@@H]1CCCN1C(=O)CNC(=O)[C@@H](N)CC(=O)O)C(=O)N[C@@H](CCCNC(N)=O)C(=O)NCC(=O)N[C@@H](CC(=O)O)C(=O)N[C@@H](CO)C(=O)NCC(=O)N1CCC[C@H]1C(=O)N1CCC[C@H]1C(=O)NCC(=O)N[C@@H](CCCNC(=N)N)C(=O)O [DGPKGAXGDSGPPGR] (H-DGPKGA[Cit]GDSGPPGR-OH; N-terminus and C-terminus assumed) | > 40000 nM | > 40000 nM | DRB1*01:01 binding capacity, WT/cit ratio (HLA-DRB1*01:01; ratio of WT IC50 to Cit IC50, >1 = citrullination increases binding): 0.533; DRB1*04:01 binding capacity, WT/cit ratio (HLA-DRB1*04:01): 0.548

Reference: paper PMC5421785, “Citrullination only infrequently impacts peptide binding to HLA class II MHC” (PLoS ONE, 2017)
